Results as given in US20110039763A1, “TARGETED ANTIMICROBIAL MOIETIES” (C3 JIAN, INC., priority 2009, published 2011).
Where two headings read alike, the source gives them in different places. Bridge positions count the residues as written; N and C are the ends. Square brackets hold non-standard residues; d marks the D form. Ends that are not written are not given here. Peptide text beside a SMILES is read from it. I, II: the chains in the order shown. Aoc = NCCCCCCCC(=O)O

Experiments:
S. aureus = experiment: Post-antibiotic effect assay, S. aureus; format: cell-based, Staphylococcus aureus; details: S. aureus monoculture; peptide 10 min, then fresh medium; FIG. 17D
Procedure: (§1) The activity and selectivity of MH-STAMPs after a 10 min incubation was determined by growth retardation experiments against targeted and untargeted bacteria in monocultures, as described previously (Id.). Cells from overnight cultures were diluted to ˜5×10^6 cfu/mL in MH (or TH with 1% sucrose for S. mutans), normalized by OD600 0.05-0.1 and seeded to 96-well plates. Cultures were then grown under the appropriate conditions for 2 h (3 h for S. mutans) prior to the addition of peptides for 10 min. Plates were then centrifuged at 3000×g for 5 min, the supernatants discarded, fresh medium returned (MH or TH without sucrose for S. mutans), and incubation resumed. Bacterial growth after treatment was then monitored over time by OD600.
(§2) MH-STAMP antimicrobial kinetics was ascertained utilizing a variation of the classical post-antibiotic effect assay, which measures the ability of an agent to affect an organism's growth after a short exposure period. Monocultures of MH-STAMP-targeted and untargeted organisms were exposed to M8(KH)-20, M8(BL)-20, BL(KH)-20, or unmodified BD2.20, then allowed to recover. […] Furthermore, replacement of the targeting region with a non-binding peptide abolishes specific activity.

P. aeruginosa [1] = experiment: Post-antibiotic effect assay, P. aeruginosa; format: cell-based, Pseudomonas aeruginosa; details: P. aeruginosa monoculture; peptide 10 min, then fresh medium; FIG. 17B
Procedure: as §1, §2

S. epidermidis [2] = experiment: Post-antibiotic effect assay, S. epidermidis; format: cell-based, Staphylococcus epidermidis; details: S. epidermidis monoculture; peptide 10 min, then fresh medium; FIG. 17C
Procedure: as §1, §2

[3] = test system: Mixed planktonic populations of P. aeruginosa, E. coli, S. epidermidis, and S. mutans; experiment: Microbial population shift assay; format: cell-based; details: mixed culture, 10 μM peptide, 24 h, detection limit 200 cfu/mL, FIG. 18; for surviving P. aeruginosa: input ~0.5×10^4 cfu/mL; for surviving E. coli / surviving S. epidermidis: input ~2×10^4 cfu/mL; for surviving S. mutans: input ~6×10^4 cfu/mL
Procedure: Peptide (10 μM) or mock-treatment (1×PBS) was then added and samples were incubated at 37° C. for 24 h under anaerobic conditions (80% N2, 15% CO2, 5% H2). […] Plates were then incubated 37° C. under aerobic conditions (TH plates were incubated anaerobically) and colonies counted after 24 h to determine survivors. […] Gram stains and direct microscopic observation (from select isolated colonies) were undertaken to confirm species identity (data not shown). The detection limit of the assay was 200 cfu/mL.
We hypothesized that potential MH-STAMP dual-functionality could affect a particular set of bacteria within a mixed population, thereby promoting the outgrowth of non-targeted organisms and “shifting” the constituent makeup. To examine this possibility, defined mixed populations of planktonic cells were treated continuously and the make-up of the community examined after 24 h.

S. mutans [4] = experiment: Post-antibiotic effect assay, S. mutans; format: cell-based, Streptococcus mutans; details: S. mutans monoculture; peptide 10 min, then fresh medium; FIG. 17A
Procedure: as §1, §2

E. coli [5] = experiment: Post-antibiotic effect assay, E. coli; format: cell-based, Escherichia coli; details: E. coli monoculture; peptide 10 min, then fresh medium; FIG. 17E
Procedure: as §1, §2

S. mutans [6] = experiment: MIC test (broth microdilution) / antimicrobial activity, S. mutans; format: cell-based, Streptococcus mutans
Procedure: (§3) The active AMPs, STAMPs and the like can be identified and/or validated using an in vitro screening assay.
(§4) It will be appreciated that other assays as are well known in the art or that will become apparent to those having skill in the art upon review of this disclosure may also be used to identify active AMPs. Such assays include, for example, the assay described in Lehrer et al. (1988) J. Immunol.
(§5) Peptides were evaluated for basic antimicrobial activity by broth microdilution, as described previously (Eckert et al. (2006) Antimicrob Agents Chemother., 50: 3651-3657; Eckert et al. (2006) Antimicrob Agents Chemother., 50: 1480-1488). Briefly, ˜1×10^5 cfu/mL bacteria were diluted in TH (S. mutans), or Mueller-Hinton (MH) broth (all other organisms) and distributed to 96-well plates. Serially-diluted (2-fold) peptides were then added and the plates incubated at 37° C. for 18-24 h. […] All experiments were conducted 10 times.

MRSA = experiment: MIC test / antimicrobial activity, MRSA; format: cell-based, Methicillin-resistant Staphylococcus aureus
Procedure: as §3, §4, §5

microorganisms [7] = experiment: Peptide activities: targeting/binding, antimicrobial, growth or phenotype altering (Tables 7, 8); format: cell-based; details: peptides having multiple activities
E. coli [8] = experiment: MIC test (broth microdilution) / antimicrobial activity, E. coli; format: cell-based, Escherichia coli
Procedure: as §3, §4, §5

S. pneumoniae = experiment: MIC test / antimicrobial activity, S. pneumoniae; format: cell-based, Streptococcus pneumoniae
Procedure: as §3, §4, §5

microorganisms [9] = experiment: Morphology, biofilm and growth disrupting peptides (Table 5); format: cell-based; parameters: key: A: Peptide aggregates; B: Less hyphal formation; Clumps; Diffuse clumps and small polyps; F: Diffuse growth; H: Thin; I: Growth inhibition; Microcolony formation; Rippled; Small polyps; Thick; W: Halo formation on top, microlonies on bottom
Text: In certain embodiments peptides that induce alterations in phenotype or other biological activities can also be used as antimicrobial effector moieties.

S. epidermidis [10] = experiment: MIC test (broth microdilution) / antimicrobial activity, S. epidermidis; format: cell-based, Staphylococcus epidermidis
Procedure: as §3, §4, §5

T. rubrum = experiment: MIC test / antimicrobial activity, T. rubrum; format: cell-based, Trichophyton rubrum
Procedure: as §3, §4, §5

A. niger = experiment: MIC test / antimicrobial activity, A. niger; format: cell-based, Aspergillus niger
Procedure: as §3, §4, §5

P. aeruginosa [11] = experiment: MIC test (broth microdilution) / antimicrobial activity, P. aeruginosa; format: cell-based, Pseudomonas aeruginosa
Procedure: as §3, §4, §5

B. subtilis = experiment: MIC test / antimicrobial activity, B. subtilis; format: cell-based, Bacillus subtilis
Procedure: as §3, §4, §5

C. jeikeium = experiment: MIC test / antimicrobial activity, C. jeikeium; format: cell-based, Corynebacterium jeikeium
Procedure: as §3, §4, §5

S. mutans [12] = experiment: Anti-S. mutans STAMP activity in vitro, incl. formulations; format: cell-based, Streptococcus mutans
Text: During the course of evaluating STAMPs, antimicrobial peptides (AMPs), and binding peptides for desired activity, it was discovered that certain formulations can attenuate or promote peptide activity, as compared to activity levels in a default buffer system (1×PBS). In some cases, 1×PBS may provide the best level of activity. Below are a number of formulations that alter, or may alter, peptide or STAMP activity. For complex buffer systems, assume the base solvent is water unless otherwise stated.
All show potent selective activity against their bacterial targets in vitro, including against biofilm forms. When tested, STAMPs have little cytotoxicity against cell lines in vitro.
It was a surprising discovery that certain anti-S. mutans STAMPs required a salt in the formulation (e.g., PBS) for optimum activity. […] Suitable PBS formulations ranged from 0.5×PBS to about 2.5×PBS with an activity optimum at about 1×PBS. Similar results are believed to obtain for other anti-S. mutans STAMPS as well as a number of other STAMPs. In certain embodiments STAMP stability in solution was improved by inclusion of fluoride in mouthrinse.

C. difficile = experiment: MIC test / antimicrobial activity, C. difficile; format: cell-based, Clostridium difficile
Procedure: as §3, §4, §5

A. baumannii = experiment: MIC test / antimicrobial activity, A. baumannii; format: cell-based, Acinetobacter baumannii
Procedure: as §3, §4, §5

## CC[C@H](C)[C@H](NC(=O)[C@@H](N)Cc1ccccc1)C(=O)N[C@@H](CCCNC(=N)N)C(=O)N[C@@H](CCCCN)C(=O)N[C@@H](Cc1ccccc1)C(=O)N[C@@H](CC(C)C)C(=O)N[C@@H](CCCCN)C(=O)N[C@@H](CCCCN)C(=O)N[C@@H](Cc1c[nH]c2ccccc12)C(=O)N[C@@H](CC(C)C)C(=O)N[C@@H](CC(C)C)C(N)=O [BD2.20] (H-FIRKFLKKWLL-NH2; N-terminus assumed)
S. aureus
  growth after treatment (culture recovery, OD600): inhibited
P. aeruginosa [1]
  growth after treatment (culture recovery, OD600): robust antimicrobial activity
S. epidermidis [2]
  growth after treatment (culture recovery, OD600): inhibited
[3]
  surviving P. aeruginosa: significant loss of recoverable cfu/mL
  surviving E. coli: significant loss of recoverable cfu/mL
  surviving S. epidermidis: significant loss of recoverable cfu/mL
  surviving S. mutans: significant loss of recoverable cfu/mL
S. mutans [4]
  growth after treatment (culture recovery, OD600): robust antimicrobial activity
E. coli [5]
  growth after treatment (culture recovery, OD600): inhibited

## CC[C@H](C)[C@H](NC(=O)[C@H](Cc1ccccc1)NC(=O)CCCCCCCNC(=O)[C@H](CCCCNC(=O)CNC(=O)CNC(=O)CNC(=O)[C@H](C)NC(=O)[C@H](CCC(=O)O)NC(=O)[C@H](CC(N)=O)NC(=O)[C@H](C)NC(=O)[C@H](C)NC(=O)[C@@H](N)CC(=O)O)NC(=O)CNC(=O)CNC(=O)CNC(=O)[C@H](CCCNC(=N)N)NC(=O)[C@H](CC(N)=O)NC(=O)[C@H](CC(C)C)NC(=O)[C@H](Cc1ccccc1)NC(=O)[C@H](CCCNC(=N)N)NC(=O)[C@H](Cc1ccccc1)NC(=O)[C@H](Cc1ccccc1)NC(=O)[C@@H](NC(C)=O)[C@@H](C)O)C(=O)N[C@@H](CCCNC(=N)N)C(=O)N[C@@H](CCCCN)C(=O)N[C@@H](Cc1ccccc1)C(=O)N[C@@H](CC(C)C)C(=O)N[C@@H](CCCCN)C(=O)N[C@@H](CCCCN)C(=O)N[C@@H](Cc1c[nH]c2ccccc12)C(=O)N[C@@H](CC(C)C)C(=O)N[C@@H](CC(C)C)C(N)=O [M8(BL)-20] (I: Ac-TFFRFLNRGGGK[Aoc]FIRKFLKKWLL-NH2 / II: H-DAANEAGGG; amide I:12-II:C)
[3]
  surviving P. aeruginosa: not affected or affected to a lesser extent
  surviving E. coli: not affected or affected to a lesser extent
  surviving S. epidermidis: not affected or affected to a lesser extent
  surviving S. mutans: greatly reduced compared to input cfu/mL
S. mutans [4]
  growth after treatment (culture recovery, OD600): effectively retarded

## FESKILNASKELDKEKKVNTALSFNSHQDFAKAYQNGKI [PF-606]
S. mutans [6]
  Organism MIC (μM): S. mutans, 50 μM
MRSA
  Organism MIC (μM): MRSA, 50 μM
Microorganisms [7]
  Activities: G M
E. coli [8]
  Organism MIC (μM): E. coli, 50 μM
S. pneumoniae
  Organism MIC (μM): S. pneumoniae, 50 μM
Microorganisms [9]; C. albicans
  Organism, effect: C. albicans (B)
Microorganisms [9]; MRSA
  Organism, effect: MRSA (I)
Microorganisms [9]; S. epidermidis
  Organism, effect: S. epidermidis (I)
Microorganisms [9]; S. mutans
  Organism, effect: S. mutans (I)
Microorganisms [9]; S. pneumoniae
  Organism, effect: S. pneumoniae (H)
S. epidermidis [10]; S. epidermidis
  Organism MIC (μM): S. epidermidis, 50 μM

## GSVIKKRRKRMAKKKHRKLLKKTRIQRRRAGK [PF-527]
T. rubrum
  Organism MIC (μM): T. rubrum, 25 μM
A. niger
  Organism MIC (μM): A. niger, 50 μM
MRSA
  Organism MIC (μM): MRSA, 50 μM
P. aeruginosa [11]
  Organism MIC (μM): P. aeruginosa, 50 μM
Microorganisms [7]
  Activities: G B M
B. subtilis
  Organism MIC (μM): B. subtilis, 12.5 μM
C. jeikeium
  Organism MIC (μM): C. jeikeium, 6.25 μM
Microorganisms [9]; B. subtilis
  Organism, effect: B. subtilis (I)
Microorganisms [9]; C. albicans
  Organism, effect: C. albicans (B)
Microorganisms [9]; C. jeikeium
  Organism, effect: C. jeikeium (I)
Microorganisms [9]; C. jejuni
  Organism, effect: C. jejuni (M)
Microorganisms [9]; M. luteus
  Organism, effect: M. luteus (S)
Microorganisms [9]; MRSA
  Organism, effect: MRSA (I)
Microorganisms [9]; P. aeruginosa
  Organism, effect: P. aeruginosa (I)
Microorganisms [9]; S. epidermidis
  Organism, effect: S. epidermidis (M)
Microorganisms [9]; S. pneumoniae
  Organism, effect: S. pneumoniae (H)
S. epidermidis [10]
  Organism MIC (μM): S. epidermidis, 25 μM

## TFFRLFNRSFTQALGKGGGKNLRIIRKGIHIIKKY* [C16G2]
S. mutans [12]; phosphate buffered saline (PBS) formulation, 0.5×PBS to about 2.5×PBS, optimum at about 1×PBS
  STAMP activity in formulation: active
S. mutans [12]; water-based salt-free buffers and nanoemulsions
  STAMP activity in formulation: substantially inactive

## TKKIELKRFVDAFVKKSYENYILERELKKLIKAINEELPTK [PF-600]
Microorganisms [7]
  Activities: G B M
E. coli [8]
  Organism MIC (μM): E. coli, 50 μM
S. pneumoniae
  Organism MIC (μM): S. pneumoniae, 50 μM
Microorganisms [9]; E. coli
  Organism, effect: E. coli (H)
Microorganisms [9]; M. luteus
  Organism, effect: M. luteus (C)
Microorganisms [9]; MRSA
  Organism, effect: MRSA (M)
Microorganisms [9]; S. epidermidis
  Organism, effect: S. epidermidis (C)
Microorganisms [9]; S. mutans
  Organism, effect: S. mutans (S)
Microorganisms [9]; S. pneumoniae
  Organism, effect: S. pneumoniae (R)

## YIQFHLNQQPRPKVKKIKIFL-NH2 [PF-531]
S. mutans [6]
  Organism MIC (μM): S. mutans, 12.5 μM
T. rubrum
  Organism MIC (μM): T. rubrum, 50 μM
A. niger
  Organism MIC (μM): A. niger, 25 μM
P. aeruginosa [11]; P. aeruginosa
  Organism MIC (μM): P. aeruginosa, 50 μM
Microorganisms [7]
  Activities: G M
B. subtilis; B. subtilis
  Organism MIC (μM): B. subtilis, 25 μM
C. jeikeium
  Organism MIC (μM): C. jeikeium, 6.25 μM
Microorganisms [9]; E. coli
  Organism, effect: E. coli (M)
Microorganisms [9]; P. aeruginosa
  Organism, effect: P. aeruginosa (I)
Microorganisms [9]; S. epidermidis
  Organism, effect: S. epidermidis (I)
Microorganisms [9]; S. pneumoniae
  Organism, effect: S. pneumoniae (C)
C. difficile
  Organism MIC (μM): C. difficile, 12.5 μM
S. epidermidis [10]; S. epidermidis
  Organism MIC (μM): S. epidermidis, 50 μM
A. baumannii
  Organism MIC (μM): A. baumannii, 25 μM
